Measured values from US5610185A, “Method for the treatment of hyperproliferative epithelial skin diseases by topical application of hydroxylated aromatic protein cross-linking compounds” (The United States of America as represented by the …, priority 1995, dated 1997).

Assays:
[1] = tested on: SQCC-Y1 human squamous carcinoma cells; assay: Cornified envelope (cross-linked protein) assay, SQCC-Y1 cells; format: cell-based; conditions: for cross-linked protein production by MC derivatives: SQCC-Y1 cells, FIG. 11, preliminary; for potency in cross-linking: of 15 aromatic compounds, FIG. 12
[2] = tested on: 308 and SQCC-Y1 cells; assay: Cross-linked protein envelopes by tyrosine kinase inhibitors (Table II); format: cell-based; conditions: concentrations within the range for inhibition of tyrosine kinases
Description: (§1) The assay measures insoluble cross-linked protein envelopes as described (Hough-Monroe et al. Analytical biochem., 199, 25-28, 1991), with modifications as follows. Cornified envelopes were prepared by scraping monolayers into 2% sodium dodecylsulphate (SDS), 20 mM dithiothreitol (DTT) in phosphate buffered saline (PBS). Unattached cells were pelleted from medium and were resuspended in SDS/DTT and pooled with attached cells. Samples were boiled for 10 mins. Cornified envelope samples were examined under the microscope using phase contrast optics or were applied to an RC60 membrane (Schleicher and Schuell, Keene, N.H.) on a 96-well dot-blot apparatus attached to a vacuum. Samples were washed three times with SDS/DTT and the resultant protein spots on RC60 membrane were fixed and stained as described. Sports were excised and eluted with 1% NH3 OH concentrated solution, 66% methanol (200 ul) overnight. Absorbance of eluate was measured on a Titertek plate reader at 600 nm.
A range of tyrosine kinase inhibitors was tested for ability to produce cross-linked protein envelopes in 308 and SQCC-Y1 cells. All inhibitors were obtained commercially from LC Laboratories, Woburn, Mass. Concentrations used were within the range for inhibition of tyrosine kinases.

[3] = tested on: transglutaminase; conditions: Dlugosz and Yuspa, Cancer Res., 51, 4677-4684, 1991; cited from earlier work
[4] = tested on: primary mouse keratinocytes; assay: Cornified envelope (cross-linked protein) assay, primary mouse keratinocytes; format: cell-based; conditions: 4° C. and 37° C., 48 hours
Description: FIGS. 3A and 3B. A: Time course for cornification of primary mouse keratinocytes in response to MC. Boxes represent […] Ca^2+, triangles represent 100 μM MC, 1.4 mM Ca^2+, and solid circles represent 1 mM MC, 1.4 mM Ca^2+. […] Cells were incubated in medium with 1.4 mM Ca^2+ and MC for 4 hours, then were incubated with MTT (0.5 mg/ml in medium) for a further 4 hours before determination of formazan production.
Primary mouse keratinocytes were isolated from BALB/c newborn mouse skin. Primary keratinocytes, the benign neoplastic keratinocyte cell lines 308 and SP-1 (Strickland et al, Cancer Res., 48, 165-169, 1988) and the mouse squamous cell carcinoma line 1-7 (Greenhalgh et al., Proc. Natl. Acad. Sci., 87, 643-647, 1990) were grown in Eagle's minimal essential medium with 8% fetal calf serum (FCS) (chelexed) and penicillin 20 iu/ml, streptomycin 20 ug/ml (P/S). Unless otherwise indicated, the Ca^2+ concentration in medium was adjusted to 0.05 mM (Hennings et al., Cells, 19, 245-254, 1980). A431 human epidermoid carcinoma cells were obtained from ATCC, Rockville, Md., and were routinely passaged in DMEM with 10% FCS, P/S, glutamine (2 mM) and pyruvate (1 mM). SQCC-Y1 human squamous carcinoma cells and non-tumorigenic HPV 18 and SV 40 infected human keratinocytes were kindly donated by Dr. James Rheinwald of Harvard University, Boston, Mass. and Dr. Richard Schlegel of Georgetown University, Washington D.C. respectively. Human cells were cultured in DMEM/Ham's F12 1:1, 10% FCS, P/S and epidermal growth factor 10 ng/ml.
Primary mouse keratinocytes were incubated with MC for 0, 0.5, 1, 4 and 48 hours and were processed as follows.
as §1
Cells were seeded at low density and were treated with MC for 3 days. Cells were then counted and increase in cell number was compared to untreated controls, or cells were processed for cross-linked protein.
Inhibitors were added 30 mins before MC or stsp (FIG. 6). Cross-linked protein was measured by the cornified envelope assay, described in Example 2.

| Compound | cross-linked protein production by MC derivatives [1] | potency in cross-linking [1] | further results |
| --- | --- | --- | --- |
| O=C(C=Cc1cc(O)ccc1O)OCCc1ccccc1 [67H-124-A, 2.5-dihydroxycinnamic acid β-phenylethyl ester] | clearly exhibit protein cross-linking activity | most potent |  |
| COC(=O)c1cc2ccc(O)c(O)c2cn1.Cl [67F-36-A, 7,8-Dihydroxyisoquinoline-3-carboxylic acid methyl ester hydrochloride] | inactive |  |  |
| O=C(O)c1cc(N(Cc2ccccc2O)Cc2cc(O)ccc2O)ccc1O [lavendustin A] |  |  | ability to induce cross-linking [2]: unable to induce cross-linking |
| CN[C@@H]1C[C@H]2O[C@@](C)([C@@H]1OC)n1c3ccccc3c3c4c(c5c6ccccc6n2c5c31)C(=O)NC4 [staurosporine, reference compound] |  |  | transglutaminase activity (literature) [3]: increases TGase activity; cross-linked protein at 4° C. and 37° C. [4]: temperature dependent |
| COC1C=CC=C(C)C(=O)NC2=CC(=O)C=C(C2=O)C(OC)C(C)CC(OC)C(OC)C(C)C=C(C)C1OC(N)=O (centres unmarked) [herbimycin A] |  |  | ability to induce cross-linking [2]: unable to induce cross-linking |
| O=C(C=Cc1cc(O)c(O)cc1O)OCCc1ccccc1 [67H-98-A, 2,4,5-Trihydroxycinnamic acid β-phenylethyl ester] | active | most potent | cross-linked protein production by MC derivatives ([1]; listed as 67H-98A): clearly exhibit protein cross-linking activity |
| COC(=O)c1ccc2c(O)c(O)ccc2c1 [67G-146-A, 5,6-Dihydroxy-2-naphthoic acid methyl ester] | active | most potent | cross-linked protein production by MC derivatives ([1]; listed as 67G-146A): clearly exhibit protein cross-linking activity |
| O=C(CCc1ccc(O)c(O)c1)OCCc1ccccc1 [67H-69-A, 3-(3,4-Dihydroxyphenyl) propanoic aid β-phenylethyl ester] | active | most potent | cross-linked protein production by MC derivatives ([1]; listed as 67H-69A): clearly exhibit protein cross-linking activity |
| O=C(/C=C/c1ccc(O)c(O)c1)OCCc1ccccc1 [67H-42-A, Caffeic acid β-phenylethyl ester] | inactive |  |  |
